Counter-ions that a name gives are not always drawn.
Key:
[1] = target: T1, IRAK4 (Homo sapiens, UniProt Q9NWZ3); experiment: Target protein degradation in K562 IRAK4-HiBiT cells (Nano-Glo HiBiT assay); assay type: cell-based; details: K562, read-out: Maximum Degradation Rate
T1 construct: expressed in transfected cells; host or cells: K562 IRAK4-HiBiT cells
T1 sequence (Q9NWZ3 1-460): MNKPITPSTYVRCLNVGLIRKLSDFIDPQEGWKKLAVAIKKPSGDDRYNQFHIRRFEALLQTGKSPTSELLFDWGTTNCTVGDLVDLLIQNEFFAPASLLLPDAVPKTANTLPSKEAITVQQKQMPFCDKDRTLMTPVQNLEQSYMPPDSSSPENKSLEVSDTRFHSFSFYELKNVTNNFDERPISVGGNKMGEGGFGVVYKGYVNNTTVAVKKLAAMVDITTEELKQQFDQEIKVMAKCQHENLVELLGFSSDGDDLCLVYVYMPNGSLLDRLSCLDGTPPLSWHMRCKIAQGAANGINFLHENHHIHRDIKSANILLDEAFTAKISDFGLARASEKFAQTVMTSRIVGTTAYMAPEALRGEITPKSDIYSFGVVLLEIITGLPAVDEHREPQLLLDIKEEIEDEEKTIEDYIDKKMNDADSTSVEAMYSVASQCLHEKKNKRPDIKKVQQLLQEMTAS
Procedure: Objective: In this experiment, the degradation effect of the compound of formula (I) on the target protein IRAK4 in K562 IRAK4-HiBiT cells was detected.
• Cells: K562 IRAK4-HiBiT cells • Culture medium: RPMI 1640 + 10% fetal bovine serum + 2 mM glutamine + 1 mM sodium pyruvate + penicillin/streptomycin • Positive control: 1000 nM; negative control: 0.1% DMSO Table 7. Reagents and consumables […]
• (1) The cell culture medium was discarded, and the cells were washed once with DPBS, digested with trypsin, and counted to prepare a cell suspension of […]. • (2) 25 µL/well of cell suspension was added to the assay plate containing the test compound using Multidrop Combi at medium speed. • (3) The assay plate containing cells was returned to an incubator with 5% CO2 at 37°C and incubated for 16 to 18 hours.
• (1) 25 µL/well of assay reagent (NanoGlo lysis buffer + substrate + LgBit protein) was added to the assay plate using Multidrop Combi at high speed, and the plate was shaken for 10 minutes. • (2) The plate was centrifuged at 2000 rpm for 1 minute to remove air bubbles. • (3) The plate was read on Envision using US Luminescence detection method. […]

[2] = target: T2, IKZF1 (Homo sapiens, UniProt Q13422+Q96SW2); experiment: In cell western analysis of IKZF1 protein expression level in MM.1S cells; assay type: cell-based; details: MM1.S, read-out: Maximum Degradation Rate Dmax
T2 construct: expression levels of IKZF1 and IKZF3 proteins in MM.1S cells; host or cells: MM.1S cells
T2 sequence (Q13422 whole entry): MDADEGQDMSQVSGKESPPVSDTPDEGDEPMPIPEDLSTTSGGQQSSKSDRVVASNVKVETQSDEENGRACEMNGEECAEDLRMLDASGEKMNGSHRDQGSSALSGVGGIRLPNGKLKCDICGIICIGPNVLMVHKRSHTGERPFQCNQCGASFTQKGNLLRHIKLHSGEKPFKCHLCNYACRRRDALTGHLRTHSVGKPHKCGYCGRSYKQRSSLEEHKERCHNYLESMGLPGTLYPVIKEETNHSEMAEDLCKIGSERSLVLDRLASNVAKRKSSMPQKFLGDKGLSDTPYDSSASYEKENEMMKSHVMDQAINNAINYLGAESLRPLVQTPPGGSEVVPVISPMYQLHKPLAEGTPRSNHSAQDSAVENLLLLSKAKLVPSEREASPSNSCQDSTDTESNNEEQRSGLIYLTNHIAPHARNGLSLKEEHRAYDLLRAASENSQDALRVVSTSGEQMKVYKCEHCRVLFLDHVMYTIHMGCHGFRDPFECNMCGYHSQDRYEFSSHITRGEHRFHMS
T2 sequence (Q96SW2 whole entry): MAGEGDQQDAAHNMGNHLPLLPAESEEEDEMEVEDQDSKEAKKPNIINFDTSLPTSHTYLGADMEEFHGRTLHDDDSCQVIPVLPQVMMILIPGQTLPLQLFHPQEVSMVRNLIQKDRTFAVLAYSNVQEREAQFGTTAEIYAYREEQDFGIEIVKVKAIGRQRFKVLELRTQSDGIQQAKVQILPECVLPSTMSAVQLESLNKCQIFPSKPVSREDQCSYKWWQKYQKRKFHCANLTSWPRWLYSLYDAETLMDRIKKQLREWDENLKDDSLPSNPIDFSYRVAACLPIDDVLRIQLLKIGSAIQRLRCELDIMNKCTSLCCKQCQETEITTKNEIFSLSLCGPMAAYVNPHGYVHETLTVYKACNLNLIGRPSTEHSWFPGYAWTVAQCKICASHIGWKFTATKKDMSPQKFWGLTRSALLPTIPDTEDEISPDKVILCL
T2 sequence (Q16531 whole entry partner): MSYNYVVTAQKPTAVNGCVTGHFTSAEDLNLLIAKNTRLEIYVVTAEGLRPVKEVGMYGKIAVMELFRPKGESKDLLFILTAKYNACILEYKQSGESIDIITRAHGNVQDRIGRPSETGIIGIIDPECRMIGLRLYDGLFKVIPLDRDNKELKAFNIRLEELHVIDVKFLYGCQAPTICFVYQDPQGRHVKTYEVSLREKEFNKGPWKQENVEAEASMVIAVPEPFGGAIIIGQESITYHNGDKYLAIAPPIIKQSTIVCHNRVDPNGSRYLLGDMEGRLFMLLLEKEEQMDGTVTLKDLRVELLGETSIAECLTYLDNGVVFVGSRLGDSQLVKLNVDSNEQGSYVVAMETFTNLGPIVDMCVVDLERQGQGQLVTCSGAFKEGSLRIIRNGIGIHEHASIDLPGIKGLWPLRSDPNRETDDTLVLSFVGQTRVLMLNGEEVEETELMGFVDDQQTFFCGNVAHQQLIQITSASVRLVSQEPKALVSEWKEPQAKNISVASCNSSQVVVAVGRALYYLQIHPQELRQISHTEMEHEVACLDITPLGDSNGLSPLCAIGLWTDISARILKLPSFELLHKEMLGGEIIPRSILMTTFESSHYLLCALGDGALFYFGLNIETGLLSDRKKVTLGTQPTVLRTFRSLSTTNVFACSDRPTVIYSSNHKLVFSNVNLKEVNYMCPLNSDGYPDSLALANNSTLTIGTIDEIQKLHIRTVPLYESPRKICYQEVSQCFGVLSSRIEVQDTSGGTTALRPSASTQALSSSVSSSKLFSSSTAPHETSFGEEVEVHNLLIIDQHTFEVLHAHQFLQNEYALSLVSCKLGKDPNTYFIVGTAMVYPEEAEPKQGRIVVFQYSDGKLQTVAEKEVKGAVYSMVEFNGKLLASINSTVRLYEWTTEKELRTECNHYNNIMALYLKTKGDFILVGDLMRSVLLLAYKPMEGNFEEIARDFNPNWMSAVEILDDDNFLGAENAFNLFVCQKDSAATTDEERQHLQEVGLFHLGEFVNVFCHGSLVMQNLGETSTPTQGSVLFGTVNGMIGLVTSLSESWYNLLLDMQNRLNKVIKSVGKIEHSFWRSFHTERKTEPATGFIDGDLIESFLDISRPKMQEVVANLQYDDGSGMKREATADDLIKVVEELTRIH
Procedure: (§1) Objective: The experiment was conducted to evaluate the degradation effects of the compound of formula (I) on IKZF1 and IKZF3 proteins in MM.1S cells by detecting their impact on the expression levels of IKZF1 and IKZF3 proteins in MM.1S cells.
(§2) • Cell line: MM.1S cell (obtained from ATCC; Cat. No. CRL-2974) • Negative control: 0.1% DMSO Table 10. Reagents and consumables
(§3) • 1) MM.1S cells in the logarithmic growth phase were seeded into a 96-well plate at 1.2×10^5 cells per well and cultured overnight. • 2) On the second day, drug treatment was initiated with a starting concentration of 300 nM, followed by a 3-fold dilution in triplicate wells, with 10 concentration gradients (containing DMSO), and incubated for 24 hours in a culture incubator. • 3) The mixture was centrifuged, and the cell supernatant was carefully removed. […]
(§4) GraphPad Prism 6 software was utilized to fit the curve with the inhibition rate data, and the DC50 value was calculated.

[3] = target: T3, IKZF3 (Homo sapiens, UniProt Q96SW2+Q9UKT9); experiment: In cell western analysis of IKZF3 protein expression level in MM.1S cells; assay type: cell-based; details: MM1.S, read-out: Maximum Degradation Rate Dmax
T3 construct: expression levels of IKZF1 and IKZF3 proteins in MM.1S cells; host or cells: MM.1S cells
T3 sequence (Q9UKT9 whole entry): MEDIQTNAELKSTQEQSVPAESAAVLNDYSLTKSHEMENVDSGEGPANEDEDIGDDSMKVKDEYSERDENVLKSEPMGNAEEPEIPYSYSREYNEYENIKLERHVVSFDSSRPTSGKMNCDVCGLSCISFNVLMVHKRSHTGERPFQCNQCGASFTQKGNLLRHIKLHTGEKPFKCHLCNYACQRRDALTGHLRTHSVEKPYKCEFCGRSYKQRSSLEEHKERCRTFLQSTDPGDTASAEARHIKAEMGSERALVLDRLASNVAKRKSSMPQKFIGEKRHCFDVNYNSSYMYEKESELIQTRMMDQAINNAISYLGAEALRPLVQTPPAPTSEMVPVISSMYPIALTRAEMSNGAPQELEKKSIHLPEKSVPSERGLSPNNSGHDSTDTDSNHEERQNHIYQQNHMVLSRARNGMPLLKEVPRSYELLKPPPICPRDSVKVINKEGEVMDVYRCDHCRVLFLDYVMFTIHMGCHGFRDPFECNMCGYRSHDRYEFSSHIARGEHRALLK
T3 sequence (Q96SW2 whole entry): as the sequence (Q96SW2 whole entry) above
T3 sequence (Q16531 whole entry partner): as the sequence (Q16531 whole entry partner) above
Procedure: as §1, §2, §3, §4

[4] = Pharmacokinetic evaluation in mice; assay type: in vivo, C57BL/6 or C57 male mice
Text: C57BL/6 or C57 male mice were selected as the test animals for this study. The LC/MS/MS method was employed to quantitatively determine the plasma drug concentrations at various time points after intravenous injection or intragastric administration of the test compound, aiming to evaluate the pharmacokinetic characteristics of the compound of the present disclosure in mice.
C57BL/6 or C57 mice (male, 20 to 30g, 7 to 10 weeks old, Beijing Vital River).
A clear solution of the test compound was injected intravenously into the tail vein of C57BL/6 mice (fasted overnight) (vehicle: 10% DMSO/10% solutol/80% H2O), or administered intragastrically to C57 mice (fed). […] The mixture was thoroughly vortexed and mixed, and centrifuged at 6000 g for 3 minutes at 2 to 8°C. […] The mixture was thoroughly vortexed and mixed, and centrifuged at 6000 g for 3 minutes at 2 to 8°C. Plasma drug concentrations were determined by the LC-MS/MS method, and relevant pharmacokinetic parameters were calculated using Phoenix WinNonlin 8.2.0 pharmacokinetic software with non-compartmental model linear-log trapezoidal method.

[5] = Pharmacokinetic evaluation in beagle dogs; assay type: in vivo, Male beagle dogs; details: fed
Procedure: Male beagle dogs were selected as the experimental animals in this study.
Beagle dogs (male, 7 to 10 kg, Beijing Mars Biotechnology Co., Ltd.).
A clear solution of the test compound was slowly injected intravenously into beagle dogs (fed) via the peripheral vein (vehicle: 5% DMSO/10% Solutol/85% H2O), or administered intragastrically to beagle dogs (fed). For intravenous administration, 0.5 mL of blood was collected from the peripheral vein at 0.083, 0.25, 0.5, 1, 2, 4, 6, 8, and 24 h after administration, placed in EDTA-2K anticoagulant tubes, and centrifuged at 3200 g for 10 minutes at 2 to 8°C to separate the supernatant. For intragastric administration, 0.5 mL of blood was collected from the peripheral vein at 0.083, 0.25, 0.5, 1, 2, 4, 6, 8, and 24 h after administration, placed in EDTA-2K anticoagulant tubes, and centrifuged at 3200 g for 10 minutes at 2 to 8°C to separate the supernatant. Plasma drug concentrations were determined by the LC-MS/MS method, and relevant pharmacokinetic parameters were calculated using Phoenix WinNonlin 6.3 pharmacokinetic software with non-compartmental model linear-log trapezoidal method.

[6] = Intragastric Administration (10 mg/kg) (fed)
[7] = Intragastric Administration (5 mg/kg)

O=C1CCC(c2noc3ccc4c(NC(=O)CN5CCN(C[C@H]6CC[C@H](n7cc(NC(=O)c8coc(-c9ccnc(NCC%10CC%10)c9)n8)c(C(F)F)n7)CC6)CC5)cccc4c23)C(=O)N1 (stereo partly drawn) [Hydrochloride of Compound of Formula (I)]
Dmax [1]: 108%
Dmax [2]: 72.3%
Dmax [3]: 73.5%
Area Under the Drug-Time Curve (0-inf) [4, 6]: 4.47 µM·h
Peak Concentration [4, 6]: 0.54 µM
Area Under the Drug-Time Curve (0-inf) ([4]; Intravenous Injection (2 mg/kg) (fasted)): 5.40 µM·h
Area Under the Drug-Time Curve (0-inf) [5, 7]: 3.20 µM·h
Peak Concentration [5, 7]: 0.41 µM
Area Under the Drug-Time Curve (0-inf) ([5]; Intravenous Injection (0.5 mg/kg)): 0.44 µM·h
